# Results reported in PMC11859928, “Design, Synthesis, and Antiproliferative Activity of Novel Indole/1,2,4-Triazole Hybrids as Tubulin Polymerization Inhibitors” (Pharmaceuticals, 2025).
# Legend:
# Type in all cases: cell-based, human
# [1] = test system: MOLT-4; experiment: NCI five-dose assay; settings: MOLT-4, Leukemia
# [2] = test system: OVCAR-5; experiment: NCI five-dose assay; settings: OVCAR-5, Ovarian cancer
# [3] = test system: ACHN; experiment: NCI five-dose assay; settings: Renal cancer
# [4] = test system: K-562; experiment: NCI five-dose assay; settings: K-562, Leukemia
# [5] = test system: HL-60(TB); experiment: NCI five-dose assay; settings: Leukemia
# [6] = test system: UACC-257; experiment: NCI five-dose assay; settings: UACC-257, Melanoma
# [7] = test system: HOP-92; experiment: NCI five-dose assay; settings: HOP-92, Non-small cell lung cancer
# [8] = test system: LOX IMVI; experiment: NCI five-dose assay; settings: Melanoma
# [9] = test system: SR; experiment: NCI five-dose assay; settings: Leukemia
# [10] = test system: OVCAR-4; experiment: NCI five-dose assay; settings: OVCAR-4, Ovarian cancer
# [11] = test system: CAKI-1; experiment: NCI five-dose assay; settings: CAKI-1, Renal cancer
# [12] = test system: CNS cancer subpanel; experiment: NCI five-dose assay, subpanel mean
# [13] = test system: DU-145; experiment: NCI five-dose assay; settings: DU-145, Prostate cancer
# [14] = test system: UO-31; experiment: NCI five-dose assay; settings: UO-31, Renal cancer
# [15] = test system: CCRF-CEM; experiment: NCI five-dose assay; settings: Leukemia
# [16] = test system: TK-10; experiment: NCI five-dose assay; settings: TK-10, Renal cancer
# [17] = test system: RXF393; experiment: NCI five-dose assay; settings: RXF393, Renal cancer
# [18] = test system: Renal cancer subpanel; experiment: NCI five-dose assay, subpanel mean
# [19] = test system: UACC-62; experiment: NCI five-dose assay; settings: UACC-62, Melanoma
# [20] = test system: SK-MEL-2; experiment: NCI five-dose assay; settings: SK-MEL-2, Melanoma
# [21] = test system: MALME-3M; experiment: NCI five-dose assay; settings: Melanoma
# [22] = test system: SF-539; experiment: NCI five-dose assay; settings: SF-539, CNS cancer
# [23] = test system: RPMI-8226; experiment: NCI five-dose assay; settings: RPMI-8226, Leukemia
# [24] = test system: MDA-MB-468; experiment: NCI five-dose assay; settings: Homo sapiens, MDA-MB-468, Breast cancer
# [25] = test system: SN12C; experiment: NCI five-dose assay; settings: Renal cancer
# [26] = test system: NCI/ADR-RES; experiment: NCI five-dose assay; settings: Ovarian cancer
# [27] = test system: SW-620; experiment: NCI five-dose assay; settings: SW-620, Colon cancer
# [28] = test system: OVCAR-3; experiment: NCI five-dose assay; settings: OVCAR-3, Ovarian cancer
# [29] = Homo sapiens, 48 h, read-out: LC50 (the source's name)
# [30] = Homo sapiens, read-out: GI50 Conc. per Cell Lines
smiles,measurement,setting,value
"Cc1ccc(C(=O)CSc2nnc(-c3c[nH]c4ccccc34)n2-c2ccccc2)cc1 [Compound 6h, 2-((5-(1H-Indol-3-yl)-4-phenyl-4H-1,2,4-triazol-3-yl)thio)-1-(p-tolyl)ethenone]",CC50,[1]; [29],> 100 µM
same,GI50,[1]; [30],21.8 µM
same,TGI Conc. per Cell Lines,[1],˃100 µM
same,LC50,"[2]; Homo sapiens, 48 h",71.5 µM
same,GI50,[2]; [30],19.4 µM
same,TGI Conc. per Cell Lines,[2],37.20 µM
same,LC50,"[3]; Homo sapiens, 48 h",62.3 µM
same,GI50,[3]; [30],13.7 µM
same,TGI Conc. per Cell Lines,[3],29.20 µM
same,CC50,"[4]; Homo sapiens, K562, 48 h, read-out: LC50 (the source's name)",> 100 µM
same,GI50,"[4]; Homo sapiens, K562, read-out: GI50 Conc. per Cell Lines",22.1 µM
same,TGI Conc. per Cell Lines,[4],˃100 µM
same,CC50,[5]; [29],> 100 µM
same,GI50,[5]; [30],30.8 µM
same,TGI Conc. per Cell Lines,[5],˃100 µM
same,CC50,[6]; [29],> 100 µM
same,GI50,[6]; [30],28.9 µM
same,TGI Conc. per Cell Lines,[6],>100 µM
same,TGI Conc. per Cell Lines,[7],34.70 µM
same,CC50,[7]; [29],82.1 µM
same,GI50,[7]; [30],14.7 µM
same,GI50,[8]; [30],14.3 µM
same,TGI Conc. per Cell Lines,[8],27.30 µM
same,CC50,[9]; [29],> 100 µM
same,GI50,[9]; [30],42 µM
same,TGI Conc. per Cell Lines,[9],˃100 µM
same,LC50,"[10]; Homo sapiens, 48 h",> 100 µM
same,GI50,[10]; [30],14.5 µM
same,TGI Conc. per Cell Lines,[10],41.50 µM
same,TGI Conc. per Cell Lines,[11],29.80 µM
same,LC50,"[11]; Homo sapiens, 48 h",59.4 µM
same,GI50,[11]; [30],14.9 µM
same,GI50 Selectivity Ratio (MID a/MID b),[12]; CNS cancer subpanel,1.11
same,GI50,"[12]; Homo sapiens, average sensitivity of all cell lines of the CNS cancer subpanel, read-out: GI50 Subpanel MID b",17.4 µM
same,TGI Conc. per Cell Lines,[13],>100 µM
same,CC50,[13]; [29],> 100 µM
same,GI50,[13]; [30],4.43 µM
same,CC50,[14]; [29],69.5 µM
same,GI50,[14]; [30],14.2 µM
same,TGI Conc. per Cell Lines,[14],31.40 µM
same,CC50,[15]; [29],> 100 µM
same,GI50,[15]; [30],54.4 µM
same,TGI Conc. per Cell Lines,[15],˃100 µM
same,CC50,[16]; [29],85 µM
same,GI50,[16]; [30],23.2 µM
same,TGI Conc. per Cell Lines,[16],44.40 µM
same,LC50 (concentration killing 50% of cells),"[17]; Homo sapiens, RXF 393, 48 h",61.5 µM
same,GI50,"[17]; Homo sapiens, RXF 393, read-out: GI50 Conc. per Cell Lines",13.6 µM
same,TGI Conc. per Cell Lines,[17],28.90 µM
same,GI50,"[18]; Homo sapiens, average sensitivity of all cell lines of the Renal cancer subpanel, read-out: GI50 Subpanel MID b",17 µM
same,GI50 Selectivity Ratio (MID a/MID b),[18]; Renal cancer subpanel,1.13
same,CC50,[19]; [29],95.1 µM
same,GI50,[19]; [30],15.3 µM
same,TGI Conc. per Cell Lines,[19],38.10 µM
same,CC50,[20]; [29],> 100 µM
same,GI50,[20]; [30],30.2 µM
same,TGI Conc. per Cell Lines,[20],>100 µM
same,GI50,[21]; [30],16.2 µM
same,TGI Conc. per Cell Lines,[21],36.20 µM
same,CC50,[22]; [29],54.2 µM
same,GI50,[22]; [30],15 µM
same,TGI Conc. per Cell Lines,[22],28.50 µM
same,CC50,[23]; [29],> 100 µM
same,GI50,[23]; [30],29.8 µM
same,TGI Conc. per Cell Lines,[23],˃100 µM
same,LC50,[24]; 48 h,81.3 µM
same,GI50,[24]; read-out: GI50 Conc. per Cell Lines,12.8 µM
same,CC50,[25]; [29],> 100 µM
same,GI50,[25]; [30],19.4 µM
same,TGI Conc. per Cell Lines,[25],48.90 µM
same,LC50,"[26]; Homo sapiens, 48 h",76.8 µM
same,GI50,[26]; [30],11.9 µM
same,TGI Conc. per Cell Lines,[26],30.20 µM
same,CC50,[27]; [29],> 100 µM
same,GI50,[27]; [30],30.3 µM
same,TGI Conc. per Cell Lines,[27],>100 µM
same,LC50,"[28]; Homo sapiens, 48 h",> 100 µM
same,GI50,[28]; [30],18 µM
same,TGI Conc. per Cell Lines,[28],43.20 µM
